Experiment [1] concerns the target T1, Serine racemase (Homo sapiens) (UniProt Q9GZT4).
T1 sequence (whole entry): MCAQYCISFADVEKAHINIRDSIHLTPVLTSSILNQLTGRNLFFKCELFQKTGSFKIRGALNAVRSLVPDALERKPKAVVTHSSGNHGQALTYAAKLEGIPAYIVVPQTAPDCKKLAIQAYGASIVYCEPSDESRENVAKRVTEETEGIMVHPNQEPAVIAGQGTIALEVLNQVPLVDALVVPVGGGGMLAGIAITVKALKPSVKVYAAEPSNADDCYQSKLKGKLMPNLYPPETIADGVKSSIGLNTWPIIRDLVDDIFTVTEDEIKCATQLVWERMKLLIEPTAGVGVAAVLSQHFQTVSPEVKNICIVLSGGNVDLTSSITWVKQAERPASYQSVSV
Put plainly: Inhibition of hexa-His-tagged purified human recombinant serine racemase expressed in Escherichia coli BL21 Codonplus (DE3)-RIL cells assessed as reduction in beta-elimination of L-serine at 5 mM by spectrophotomtery.

Experiment [2] has as its target T2, Serine racemase (Homo sapiens, UniProt Q9GZT4).
T2 sequence (Q9GZT4 whole entry): T1 sequence (whole entry)
Put plainly: Inhibition of hexa-His-tagged purified human recombinant serine racemase expressed in Escherichia coli BL21 Codonplus (DE3)-RIL cells assessed as reduction in beta-elimination of L-serine at by spectrophotomtery.

The target in experiment [3] is T2, Serine racemase. Put plainly: Inhibition of human recombinant serine racemase expressed in Escherichia coli Rosetta 2 (DE3) cells using L-serine as substrate by horseradish peroxidase based couple assay.
Experiment [4] addresses T1, Serine racemase (Homo sapiens). Particulars: 330 uM.
Description: Inhibition of hexa-His-tagged purified human recombinant serine racemase expressed in Escherichia coli BL21 Codonplus (DE3)-RIL cells assessed as reduction in beta-elimination of L-serine at 330 uM by spectrophotomtery
Experiment [5] shares this target. Kind of experiment: Inhibition of hexa-His-tagged purified human recombinant serine racemase expressed in Escherichia coli BL21 Codonplus (DE3)-RIL cells assessed as reduction in beta-elimination of L-serine at 2.8 mM by spectrophotomtery.

Usually inhibition stands for the relative decrease from the control value, in per cent. For orientation: Ki means a dissociation constant, usually derived from enzyme kinetics or from competition with a known ligand. With `O=C(O)CC1(C(=O)O)CN2CCC1CC2` (stereo unspecified), the inhibition in experiment [1] stood at 2%. In experiment [2], the Ki is above 10 mM.

Consider `O=C(O)CC(=O)O` [MALONIC ACID], for which the figures for the Ki in experiment [3] and in experiment [2] were 59 µM and 0.066 mM, respectively. Moreover, the inhibition in experiment [4] came to 76%.

In the case of `CC[C@H](NS(=O)(=O)c1ccc([N+](=O)[O-])cc1)C(=O)O`, the inhibition in experiment [1] came to 70%. The Ki in experiment [2] is 1.5 mM.

Turning to `O=C(O)CC(CC(=O)O)C(=O)O` [TRICARBALLYLIC ACID], in experiment [5], the inhibition came out at 59%. Besides, the inhibition constant Ki in experiment [2] amounted to 1.3 mM.

Turning to `CN1C(=O)C(=CNC(CC(=O)O)C(=O)O)C(=O)N(C)C1=O` (stereo unspecified), the inhibition in experiment [1] is 66%. In addition, in experiment [2], the inhibition constant Ki came out at 1.7 mM.

Consider `O=C(O)COCC(=O)Cc1cc(SCCO)cc([N+](=O)[O-])c1`, for which the inhibition in experiment [5] was 29%. Further, the inhibition constant Ki in experiment [2] was 4.5 mM.

`O=C(O)NCS(=O)(=O)c1cccs1`: the inhibition in experiment [1] was found to be 70%. The inhibition constant (Ki) in experiment [2] came out at 1.5 mM.

`O=[N+]([O-])c1cccnc1SCC(O)CO` (stereo unspecified): in experiment [5], the inhibition amounted to 0%.

Values taken from ChEMBL document CHEMBL3616404, “Expanding the chemical space of human serine racemase inhibitors” (Bioorg Med Chem Lett, 2015).
